# According to patent US20250188033A1, “INHIBITOR OF REPLICATION PROTEIN A1 OF TRYPANOSOMA BRUCEI AND METHOD OF USE THEREOF” (Research Foundation of the City University of New York, published 2025):
# Tested on: Trypanosoma brucei
# Assay: ALAMARBLUE cell viability / growth assay of T. brucei cells
# Type: cell-based
# Settings: T. brucei, 72 hours, normalized to DMSO control
# Protocol: To determine cell growth rate, WT and two TbRPA1 RNAi KD strains (KD1 and KD2) were seeded at a density of 1×10^5 cells/ml and cultured with or without tetracycline for the induction of RNAi. Cells were counted every 12 hours for 2 days. To determine the viability of TbRPA1-depleted cells, ALAMARBLUE® assay (Thermo Fisher, an established colorimetric technique that detects metabolically active cells) was used. Cells from each time point were incubated with ALAMARBLUE® dye for 4-6 hours and percentage of live cells was determined by measuring resorufin converted from resazurin by reducing environment of live cells. Synergy H1 microplate reader (BioTek) was used with 560/590 nm (excitation/emission) filter settings and Relative Fluorescence Unit (RFU) values were obtained. The percentage of viable cells were calculated from the RFU values.
# The initial assessment of JC-229's inhibitory effect on T. brucei cell growth was performed at 50 μM concentration. Trypanosome cells were seeded at 1×10^3 cells/ml density in 180 μl in a 96-well culture plate in triplicate. These cells were incubated with 50 μM JC-229 for 24, 48, and 72 hours. DMSO was used as a vehicle control at 0.0075%. JC-229-treated culture and control cultures were analyzed with the ALAMARBLUE® dye as described above.
# To obtain the EC50 value of JC-229, T. brucei cells were seeded at 1×10^3 cells/ml density in 180 μl in a 96-well culture plate in triplicate. These cells were incubated for 72 hours with increasing concentrations of JC-229, (0.5 μM to 50 μM) and cell viability was determined using the ALAMARBLUE® dye as described above.
# Trypanosoma brucei cytotoxicity of JC-229 and analogs were measured using ALAMARBLUE® assay (Rampersad, S. N. Multiple applications of ALAMARBLUE® as an indicator of metabolic function and cellular health in cell viability bioassays. Sensors (Basel) 12, 12347-12360 (2012). Trypanosome cells were seeded at 1×10^3 cells/ml density in 180 μl in a 96-well culture plate in triplicate. These cells were incubated with indicated concentration of JC compounds for 72 hours. DMSO was used as a vehicle control at 0.0075%. JC compound-treated cultures were then incubated with ALAMARBLUE® dye for 4-6 hours and percentage of live cells was determined using Synergy H1 microplate reader (BioTek) with 560/590 nm (excitation/emission) filter settings and Relative Fluorescence Unit (RFU) values were obtained. The percentage of viable cells were calculated from the RFU values by normalizing to DMSO treated control. In one embodiment, the inhibitor is characterized in that it provides at least 50%, at least 80% or at least 90% inhibition at a concentration of 5 μM when tested in accordance with the above conditions.
structure (smiles),measurement,value
O=C(Nc1ccc(Cl)c(Cl)c1)c1ccc(Cl)c(S(=O)(=O)Nc2ccc(Cl)c(Cl)c2)c1 [JC-853],% Inhibition @2 μM,−17%
same,% Inhibition @10 μM,81%
Cc1ccc(C(=O)Nc2ccc(Cl)c(Cl)c2)cc1S(=O)(=O)NCCc1ccccc1 [JC-854],% Inhibition @2 μM,−27%
same,% Inhibition @10 μM,14%
O=C(Nc1ccc(Cl)c(Cl)c1)c1ccc(Br)c(S(=O)(=O)Nc2ccc(Cl)c(Cl)c2)c1 [JC-855],% Inhibition @2 μM,−5%
same,% Inhibition @10 μM,89%
Cc1ccc(C(=O)NCc2ccccc2)cc1S(=O)(=O)Nc1ccc(Cl)c(Cl)c1 [JC-856],% Inhibition @2 μM,−7%
same,% Inhibition @10 μM,22%
Cc1ccc(C(=O)Nc2ccc(Cl)c(Cl)c2)cc1S(=O)(=O)NCc1ccccc1 [JC-857],% Inhibition @2 μM,−5%
same,% Inhibition @10 μM,14%
Cc1ccc(S(=O)(=O)Nc2ccc(Cl)c(Cl)c2)cc1C(=O)Nc1ccc(Cl)c(Cl)c1 [JC-858],% Inhibition @2 μM,13%
same,% Inhibition @5 μM,86%
same,% Inhibition @10 μM,100%
Cc1ccc(C(=O)NCCc2ccccc2)cc1S(=O)(=O)Nc1ccc(Cl)c(Cl)c1 [JC-859],% Inhibition @2 μM,13%
same,% Inhibition @10 μM,9%
Cc1ccc(C(=O)NNc2ccccc2)cc1S(=O)(=O)Nc1ccc(Cl)c(Cl)c1 [JC-860],% Inhibition @2 μM,5%
same,% Inhibition @10 μM,24%
Cc1ccc(C(=O)N[C@H](Cc2ccccc2)C(N)=O)cc1S(=O)(=O)Nc1ccc(Cl)c(Cl)c1 [JC-861],% Inhibition @2 μM,5%
same,% Inhibition @10 μM,4%
Cc1ccc(C(=O)N[C@@H](Cc2ccccc2)C(N)=O)cc1S(=O)(=O)Nc1ccc(Cl)c(Cl)c1 [JC-862],% Inhibition @2 μM,−19%
same,% Inhibition @10 μM,27%
Cc1ccc(C(=O)NCCN(C)C)cc1S(=O)(=O)Nc1ccc(Cl)c(Cl)c1.O=C(O)C(F)(F)F [JC-863],% Inhibition @2 μM,−40%
same,% Inhibition @10 μM,2%
Cc1ccc(C(=O)NCCO)cc1S(=O)(=O)Nc1ccc(Cl)c(Cl)c1 [JC-864],% Inhibition @2 μM,−20%
same,% Inhibition @10 μM,42%
Cc1ccc(C(=O)Nc2nc3ccccc3[nH]2)cc1S(=O)(=O)Nc1ccc(Cl)c(Cl)c1 [JC-865],% Inhibition @2 μM,−1%
same,% Inhibition @10 μM,55%
Cc1ccc(C(=O)Nc2cc(C(F)(F)F)n[nH]2)cc1S(=O)(=O)Nc1ccc(Cl)c(Cl)c1 [JC-866],% Inhibition @2 μM,−15%
same,% Inhibition @10 μM,23%
Cc1ccc(C(=O)N2CCOCC2)cc1S(=O)(=O)Nc1ccc(Cl)c(Cl)c1 [JC-867],% Inhibition @2 μM,−14%
same,% Inhibition @10 μM,31%
Cc1ccc(C(=O)Nc2ccc(Cl)c(Cl)c2)cc1S(=O)(=O)NNc1ccccc1 [JC-868],% Inhibition @2 μM,1%
same,% Inhibition @10 μM,20%
Cc1ccc(C(=O)Nc2ccc(Cl)c(Cl)c2)cc1S(=O)(=O)NC(Cc1ccccc1)C(N)=O (stereo not drawn) [JC-869],% Inhibition @2 μM,−34%
same,% Inhibition @10 μM,30%
Cc1ccc(C(=O)Nc2ccc(Cl)c(Cl)c2)cc1S(=O)(=O)NC(Cc1ccccc1)C(N)=O (stereo not drawn) [JC-870],% Inhibition @2 μM,−34%
same,% Inhibition @10 μM,49%
Cc1ccc(C(=O)Nc2ccc(Cl)c(Cl)c2)cc1S(=O)(=O)NCCN(C)C [JC-871],% Inhibition @2 μM,−3%
same,% Inhibition @10 μM,79%
Cc1ccc(C(=O)Nc2ccc(Cl)c(Cl)c2)cc1S(=O)(=O)NCCO [JC-872],% Inhibition @2 μM,−13%
same,% Inhibition @10 μM,21%
Cc1ccc(C(=O)Nc2ccc(Cl)c(Cl)c2)cc1S(=O)(=O)Nc1nc2ccccc2[nH]1 [JC-873],% Inhibition @2 μM,−4%
same,% Inhibition @5 μM,1%
same,% Inhibition @10 μM,100%
Cc1ccc(C(=O)Nc2ccc(Cl)c(Cl)c2)cc1S(=O)(=O)Nc1cc(C(F)(F)F)n[nH]1 [JC-874],% Inhibition @2 μM,1%
same,% Inhibition @5 μM,51.8%
same,% Inhibition @10 μM,97%
Cc1ccc(C(=O)Nc2ccc(Cl)c(Cl)c2)cc1S(=O)(=O)N1CCOCC1 [JC-885],% Inhibition @2 μM,13%
same,% Inhibition @10 μM,38%
Cc1ccc(C(=O)Nc2ccc(Cl)c(Cl)c2)cc1S(=O)(=O)N1CCC(F)(F)CC1 [JC-886],% Inhibition @2 μM,3%
same,% Inhibition @5 μM,93.7%
same,% Inhibition @10 μM,100%
Cc1ccc(C(=O)Nc2ccc(Cl)c(Cl)c2)cc1S(=O)(=O)NCc1cccc2ccccc12 [JC-887],% Inhibition @2 μM,−9%
same,% Inhibition @10 μM,14%
Cc1ccc(C(=O)Nc2ccc(Cl)c(Cl)c2)cc1S(=O)(=O)Nc1cc(C(C)C)n[nH]1 [JC-888],% Inhibition @2 μM,16%
same,% Inhibition @5 μM,62.1%
same,% Inhibition @10 μM,100%
Cc1ccc(C(=O)Nc2ccc(Cl)c(Cl)c2)cc1S(=O)(=O)Nc1ccc(C#N)cc1N [JC-889],% Inhibition @2 μM,−3%
same,% Inhibition @10 μM,−11%
Cc1ccc(C(=O)Nc2ccc(Cl)c(Cl)c2)cc1S(=O)(=O)NCCOCCO [JC-890],% Inhibition @2 μM,4%
same,% Inhibition @10 μM,37%
Cc1ccc(C(=O)Nc2ccc(Cl)c(Cl)c2)cc1S(=O)(=O)N(CCCCO)Cc1ccccc1 [JC-891],% Inhibition @2 μM,13%
same,% Inhibition @5 μM,88.8%
same,% Inhibition @10 μM,100%
Cc1ccc(C(=O)Nc2ccc(Cl)c(Cl)c2)cc1S(=O)(=O)Nc1ccc([N+](=O)[O-])cc1N [JC-892],% Inhibition @2 μM,13%
same,% Inhibition @10 μM,1%
Cc1ccc(C(=O)Nc2ccc(Cl)c(Cl)c2)cc1S(=O)(=O)NC(CO)(CO)CO [JC-893],% Inhibition @2 μM,2%
same,% Inhibition @10 μM,−5%
Cc1cc(NS(=O)(=O)c2cc(C(=O)Nc3ccc(Cl)c(Cl)c3)ccc2C)n[nH]1 [JC-894],% Inhibition @2 μM,−4%
same,% Inhibition @10 μM,2%
Cc1ccc(C(=O)Nc2ccc(Cl)c(Cl)c2)cc1S(=O)(=O)NCCCCO [JC-895],% Inhibition @2 μM,10%
same,% Inhibition @10 μM,45%
Cc1ccc(C(=O)Nc2ccc(Cl)c(Cl)c2)cc1S(=O)(=O)N1CCC(NC(=O)OC(C)(C)C)CC1 [JC-896],% Inhibition @2 μM,17%
same,% Inhibition @5 μM,69.4%
same,% Inhibition @10 μM,92%
Cc1ccc(C(=O)Nc2ccc(Cl)c(Cl)c2)cc1S(=O)(=O)NCCCCCO [JC-897],% Inhibition @2 μM,0%
same,% Inhibition @10 μM,36%
Cc1ccc(C(=O)Nc2ccc(Cl)c(Cl)c2)cc1S(=O)(=O)NCCCCCCO [JC-898],% Inhibition @2 μM,6%
same,% Inhibition @10 μM,57%
Cc1ccc(C(=O)Nc2ccc(Cl)c(Cl)c2)cc1S(=O)(=O)Nc1cccc([N+](=O)[O-])c1N [JC-899],% Inhibition @2 μM,3%
same,% Inhibition @10 μM,14%
